In ChEMBL document CHEMBL4387740, “Discovery of ABT-957: 1-Benzyl-5-oxopyrrolidine-2-carboxamides as selective calpain inhibitors with enhanced metabolic stability” (Bioorg Med Chem Lett, 2019):

Assays:
[1] = target: T1, Calpain-1 catalytic subunit (Homo sapiens, UniProt P07384); experiment: Inhibition of Cal1 (unknown origin)
T1 sequence (P07384 whole entry): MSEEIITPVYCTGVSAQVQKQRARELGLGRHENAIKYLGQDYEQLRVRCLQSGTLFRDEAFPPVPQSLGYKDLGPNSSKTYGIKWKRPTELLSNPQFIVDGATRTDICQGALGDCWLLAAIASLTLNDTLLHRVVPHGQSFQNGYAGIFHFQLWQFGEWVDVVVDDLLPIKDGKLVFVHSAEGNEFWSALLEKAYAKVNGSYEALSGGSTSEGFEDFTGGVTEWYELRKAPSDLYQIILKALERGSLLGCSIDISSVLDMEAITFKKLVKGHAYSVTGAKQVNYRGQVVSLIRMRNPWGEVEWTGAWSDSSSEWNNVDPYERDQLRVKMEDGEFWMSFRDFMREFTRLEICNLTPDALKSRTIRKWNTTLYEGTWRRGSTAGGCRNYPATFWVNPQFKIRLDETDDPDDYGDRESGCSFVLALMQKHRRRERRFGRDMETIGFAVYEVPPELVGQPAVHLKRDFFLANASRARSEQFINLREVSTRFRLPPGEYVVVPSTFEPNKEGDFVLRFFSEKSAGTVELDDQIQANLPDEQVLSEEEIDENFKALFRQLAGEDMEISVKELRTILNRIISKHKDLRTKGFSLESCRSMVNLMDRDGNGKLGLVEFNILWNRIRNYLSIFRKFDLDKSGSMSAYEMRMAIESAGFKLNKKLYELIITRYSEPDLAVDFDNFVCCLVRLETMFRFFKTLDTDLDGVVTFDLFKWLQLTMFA

Homo sapiens [2] = species on record: Homo sapiens; experiment: Selectivity ratio, ratio of Ki for CatB (unknown origin) to Ki for Cal1 (unknown origin)
Homo sapiens [3] = species on record: Homo sapiens; experiment: Selectivity ratio, ratio of Ki for CatK (unknown origin) to Ki for Cal1 (unknown origin)
Homo sapiens [4] = species on record: Homo sapiens; experiment: Selectivity ratio, ratio of Ki for CatL (unknown origin) to Ki for Cal1 (unknown origin)
[5] = Selectivity ratio, ratio of Ki for CatS (unknown origin) to Ki for Cal1 (unknown origin); details: Homo sapiens

## NC(=O)C(=O)C(Cc1ccccc1)NC(=O)[C@H]1CCC(=O)N1Cc1ccccc1OC(F)(F)F (mixture of isomers)
[1]
  Ki: 57 nM
Homo sapiens [2]
  Selectivity ratio: 5
Homo sapiens [3]
  Selectivity ratio: 33
Homo sapiens [4]
  Selectivity ratio: 41
[5]
  Selectivity ratio: 127

## NC(=O)C(=O)C(Cc1ccccc1)NC(=O)c1cccc(=O)n1Cc1ccccc1 (stereo not given)
[1]
  Ki: 82 nM
Homo sapiens [2]
  Selectivity ratio: 15
Homo sapiens [3]
  Selectivity ratio: 2
Homo sapiens [4]
  Selectivity ratio: 4
[5]
  Selectivity ratio: 13

## NC(=O)C(=O)C(Cc1ccccc1)NC(=O)c1cccnc1-n1ccc(-c2ccc(F)cc2)n1 (stereo not given)
Homo sapiens [2]
  Selectivity ratio: 10
Homo sapiens [3]
  Selectivity ratio: 18
Homo sapiens [4]
  Selectivity ratio: 127
[5]
  Selectivity ratio: > 300

## CN1C[C@H](C(=O)NC(Cc2ccccc2)C(=O)C(N)=O)N(Cc2ccccc2)C1=O (mixture of isomers)
[1]
  Ki: 101 nM
Homo sapiens [2]
  Selectivity ratio: 72
Homo sapiens [3]
  Selectivity ratio: 4
Homo sapiens [4]
  Selectivity ratio: 3
[5]
  Selectivity ratio: 2

## NC(=O)C(=O)C(Cc1ccccc1)NC(=O)[C@H]1CCC(=O)N1CC1CCCCC1 (mixture of isomers)
[1]
  Ki: 200 nM
Homo sapiens [2]
  Selectivity ratio: 8
Homo sapiens [3]
  Selectivity ratio: < 1
Homo sapiens [4]
  Selectivity ratio: 2
[5]
  Selectivity ratio: 5

## NC(=O)C(=O)C(Cc1ccccc1)NC(=O)[C@H]1CCCC(=O)N1Cc1ccccc1 (mixture of isomers)
[1]
  Ki: 64 nM
Homo sapiens [2]
  Selectivity ratio: 14
Homo sapiens [3]
  Selectivity ratio: 4
Homo sapiens [4]
  Selectivity ratio: 21
[5]
  Selectivity ratio: 56

## NC(=O)C(=O)C(Cc1ccccc1)NC(=O)C1CCS(=O)(=O)N1Cc1ccccc1 (mixture of isomers)
[1]
  Ki: 268 nM
Homo sapiens [2]
  Selectivity ratio: 56
Homo sapiens [3]
  Selectivity ratio: 2
Homo sapiens [4]
  Selectivity ratio: 12
[5]
  Selectivity ratio: 7

## NC(=O)C(=O)C(Cc1ccccc1)NC(=O)[C@H]1CCC(=O)N1Cc1cccc(C(F)(F)F)c1 (mixture of isomers)
[1]
  Ki: 26 nM
Homo sapiens [2]
  Selectivity ratio: 15
Homo sapiens [3]
  Selectivity ratio: 84
Homo sapiens [4]
  Selectivity ratio: 11
[5]
  Selectivity ratio: 85

## NC(=O)C(=O)C(Cc1ccccc1)NC(=O)[C@H]1CCC(=O)N1Cc1ccccc1C(F)(F)F (mixture of isomers)
[1]
  Ki: 59 nM
Homo sapiens [2]
  Selectivity ratio: 17
Homo sapiens [3]
  Selectivity ratio: 102
Homo sapiens [4]
  Selectivity ratio: 65
[5]
  Selectivity ratio: 524

## COc1cccc(C(F)(F)F)c1CN1C(=O)CC[C@@H]1C(=O)NC(Cc1ccccc1)C(=O)C(N)=O (mixture of isomers)
[1]
  Ki: 36 nM
Homo sapiens [2]
  Selectivity ratio: 51
Homo sapiens [3]
  Selectivity ratio: 120
Homo sapiens [4]
  Selectivity ratio: 387
[5]
  Selectivity ratio: 395

## NC(=O)C(=O)C(Cc1ccccc1)NC(=O)[C@H]1CCC(=O)N1c1ccccc1 (mixture of isomers)
[1]
  Ki: > 1350 nM
Homo sapiens [2]
  Selectivity ratio: 28
Homo sapiens [3]
  Selectivity ratio: 6
Homo sapiens [4]
  Selectivity ratio: 7
[5]
  Selectivity ratio: 11

## C[C@H]1C[C@H](C(=O)NC(Cc2ccccc2)C(=O)C(N)=O)N(Cc2ccccc2)C1=O (mixture of isomers)
[1]
  Ki: 50 nM
Homo sapiens [2]
  Selectivity ratio: 23
Homo sapiens [3]
  Selectivity ratio: 1
Homo sapiens [4]
  Selectivity ratio: 13
[5]
  Selectivity ratio: 3

## Cc1ccc(S(=O)(=O)N2CCC[C@@H]2C(=O)NC(Cc2ccccc2)C(=O)C(N)=O)cc1 (mixture of isomers)
[1]
  Ki: 129 nM
Homo sapiens [2]
  Selectivity ratio: 72
Homo sapiens [3]
  Selectivity ratio: 14
Homo sapiens [4]
  Selectivity ratio: 4
[5]
  Selectivity ratio: 14

## CC(C)(C)CN1C(=O)CC[C@@H]1C(=O)NC(Cc1ccccc1)C(=O)C(N)=O (mixture of isomers)
[1]
  Ki: 1350 nM
Homo sapiens [2]
  Selectivity ratio: 23
Homo sapiens [3]
  Selectivity ratio: 7
Homo sapiens [4]
  Selectivity ratio: 7
[5]
  Selectivity ratio: 7

## NC(=O)C(=O)C(Cc1ccccc1)NC(=O)[C@H]1CCC(=O)N1Cc1cccc(OC(F)(F)F)c1 (mixture of isomers)
[1]
  Ki: 125 nM
Homo sapiens [2]
  Selectivity ratio: 7
Homo sapiens [3]
  Selectivity ratio: 61
Homo sapiens [4]
  Selectivity ratio: 4
[5]
  Selectivity ratio: 76

## CONC(=O)C(=O)C(Cc1ccccc1)NC(=O)[C@H]1CCC(=O)N1Cc1ccccc1 (stereo not given in full)
[1]
  Ki: 4360 nM
